Assay results: US20260265675A1, “Methods for Enhanced Gene Expression in Microorganisms” (ALGAE-C INC., priority 2023, published 2026)

Tests used:
Format in all cases: cell-based, Chlamydomonas reinhardtii
mVenus [1] = assay: mVenus expression after 6-day treatment with SAHA analogs and other HDAC inhibitors (96 well liquid culture, flow cytometry and plate reader); conditions: for expression of the transgene: mVenus transgene in Chlamydomonas reinhardtii, compared with other histone deacetylase inhibitors; for frequency of mVenus-positive cells / increase of amount of mVenus inside each cell (mean fluorescence intensity) / increase of frequency of mVenus-positive cells: day 3 post-treatment
Method: For the SAHA (vorinostat), belinostat, dacinostat, panobinostat, mocetinostat, entinostat, and romidepsin series of treatments (comparison between various SAHA analogs and other HDAC inhibitors), inoculums of 10^5 cells in late exponential phase of growth were transferred in 200 μL of TAP medium in 96 well plates and were treated with 5 μM of each histone deacetylase inhibitor for 6 days. DMSO was used as a negative control.
(§1) Growth curves were obtained using a Synergy H1 plate reader (Biotek, Agilent), from two or three biological replicates for each strain studied as in (Molino et al., 2022). For SAHA main treatments, 250 μL samples of 50 mL cultures were added in 96 well flat bottom microplates (Corning Costar 96-Well, Cell Culture-Treated, Fisher Scientifics). The OD absorbance was read at 750 nm. Bottom read scan mode mean fluorescence was measured with Excitation (Ex): 500 nm/Emission (Em): 541 nm for mVenus; and bottom read fluorescence Ex: 475 nm/Em: 650 nm for chlorophyll.
(§2) A Cytomics FC500 cytometer equipped with Argon (488 nm) and HeNe (633 nm) lasers were used to measure mVenus emission on the FL1 channel (525/15 nm), and chloroplast fluorescence on the FL4 channel (675/15 nm) (Beckman Coulter Life Sciences). At least 10 000 events were acquired. A homogeneous cloud of intact cells was first gated based on size (FSC) and granulosity (SSC). Then a daughter gate selected the cloud of cells with homogenous chlorophyll autofluorescence. The % of mVenus^+ cells was measured on this daughter population with a gate in the FL1 channel that excluded cells with autofluorescence levels similar to the negative controls. Cells were considered mVenus^+ when both the % of gated mVenus^+ cells (and >0.1%) and mVenus mean fluorescence intensity were higher than the values of the WT controls. Propidium iodide (Thermo Fisher) was used to verify viability and acquired on the FL3 channel (620/20 nm). To select for palmelloid cells, a second gate that included events with a minimum of 2-fold increase in FSC mean intensity was drawn, similarly to (Cheloni and Slaveykova, 2021). In that case, cells were acquired on a Beckman Cytoflex S equipped with violet (405 nm), blue (488 nm), yellow-green (561 nm) and red (638 nm) lasers. Chlorophyll autofluorescence was detected in the PerCP channel (690/50 nm), mVenus on the FITC (525/40BP). Statistics were obtained using BD FlowJo version 10 software (BD Biosciences, La Jolla, CA, USA, 2020).

mVenus [2] = assay: mVenus expression followed over 12 days after SAHA treatment in flask cultures (microplate reader and flow cytometer)
Method: (§3) For the SAHA main treatments, inoculum of 10^5 cells in late exponential phase of growth were transferred in 50 mL of TAP medium in 125 mL shake flasks and were treated with 5 μM for 12 days (to evaluate mVenus expression overtime), or with 2.5, 5 and 10 μM for 6 days (to evaluate SAHA toxicity over cell viability). DMSO was used as a negative control.
as §1, §2

C. reinhardtii [3] = assay: Chlorophyll content observed by culture colour at higher SAHA concentrations
C. reinhardtii [4] = assay: Palmelloid colony formation and motility (microscopy, flow cytometry)
Method: as §3, §2

C. reinhardtii [5] = assay: Cell viability (membrane integrity) by propidium iodide staining, flow cytometry; conditions: SAHA 2.5, 5 and 10 μM, day 6
Method: as §3
as §2, with “To select for palmelloid cells, a second gate that included events with a minimum of 2-fold increase in FSC mean intensity was drawn, similarly to (Cheloni and Slaveykova, 2021). In that case, cells were acquired on a Beckman Cytoflex S equipped with violet (405 nm), blue (488 nm), yellow-green (561 nm) and red (638 nm) lasers.” left out, “Statistics were obtained using BD FlowJo version 10 software (BD Biosciences, La Jolla, CA, USA, 2020).” left out

mVenus mRNA = mVenus mRNA relative expression by RT-qPCR (normalized on histone H3); conditions: day 6
Method: 4 mL of a 6 days C. reinhardtii grown culture were harvested and centrifuged in Eppendorf tube for 5 min at 4000 g. Cells were lysed by immersion in liquid nitrogen for 1 min. Total RNA was extracted using Invitrogen™ TRIzol™ reagent (Life technologies, Thermo Fisher Scientifics) according to the manufacturer's protocol with minor modifications, including the addition of NaCl at a final concentration of 100 mM in the isopropanol at the nucleic acids precipitation step. Samples were further treated with Turbo DNase (Invitrogen™ TURBO DNA-free™ Kit, Thermo Fisher Scientifics) according to the manufacturer's instructions. RNA yield and quality were determined with 260 nm/280 nm absorbance ratio obtained on a Nanodrop instrument (Thermo Fisher Scientific). Samples of <100 ng total RNA were subjected to reverse transcription and qPCR amplification in a single reaction using the Luna® Universal One-Step RT-qPCR Kit Protocol (New England Biolabs Canada). Briefly, 1 μl of RNA were subjected to reverse transcription performed at 55° C. for 10 minutes. Initial denaturation was 1 min at 95° C. followed by 45 cycles of denaturation for 10 seconds, extension for 30 seconds at 60° C. […] SYBR Green fluorescence was recorded in the FAM channel of a CFX connect real time system (BioRad). […] Relative mRNA expression levels were determined according to the 2^(−ddCt) method.

mVenus [6] = assay: mVenus expression after one year of storage, 72 h treatment with histone deacetylase inhibitors (flow cytometry); conditions: SAHA 5 μM, cells stored for one year after transformation
Description: as §2, with “Statistics were obtained using BD FlowJo version 10 software (BD Biosciences, La Jolla, CA, USA, 2020).” left out

C. reinhardtii [7] = assay: Growth curve / growth kinetic (OD 750 nm)
Method: […] DMSO was used as a negative control.
as §1

mVenus [8] = assay: mVenus expression by flow cytometry after 24 h treatment with silencing inhibitors (96 well liquid culture)
Method: For the sirtinol, SAHA, OSS-128167, nicotinamide and sodium butyrate series of treatments (comparison between various HDAC inhibitors), inoculums of 10^5 cells in late exponential phase of growth were transferred in 200 μL of TAP medium in 96 well plates and were treated with 50 μM, 2.5 μM, 100 μM, 1 mM and 5 mM of each histone deacetylase inhibitor respectively for 24 hours; a mix of all inhibitors was also tested. DMSO was used as a negative control.
as §2

[9] = SAHA 5 μM, compared to untreated or DMSO treated cells
[10] = SAHA 2.5 μM, transformed clones

O=C(/C=C/c1cccc(S(=O)(=O)Nc2ccccc2)c1)NO [Belinostat, (2E)-N-Hydroxy-3-[3-(phenylsulfamoyl)phenyl]prop-2-enamide]
expression of the transgene (mVenus [1]): substantially increase

O=C(/C=C/c1ccc(CN(CCO)CCc2c[nH]c3ccccc23)cc1)NO [Dacinostat, (E)-N-hydroxy-3-[4-[[2-hydroxyethyl-[2-(1H-indol-3-yl)ethyl]amino]methyl]phenyl]prop-2-enamide]
expression of the transgene (mVenus [1]): substantially increase

Cc1[nH]c2ccccc2c1CCNCc1ccc(/C=C/C(=O)NO)cc1 [Panobinostat, (2E)-N-hydroxy-3-[4-({[2-(2-methyl-1H-indol-3-yl)ethyl]amino}methyl)phenyl]acrylamide]
expression of the transgene (mVenus [1]): substantially increase

O=C(CCCCCCC(=O)Nc1ccccc1)NO [SAHA, N-hydroxy-N′-phenyloctanediamide]
mVenus fluorescence (mVenus [2]; SAHA 5 μM at day 0, around day 4-5, all clones): steadily increased
transgene expression over culture period (mVenus [2]; SAHA 5 μM, 12 days, flask cultures): steadily increases
decline in mVenus production in stationary phase (mVenus [2]; SAHA 5 μM, around day 7-8): did not prevent the progressive decline in production
mVenus fluorescence per cell at day 12 (mVenus [2]; [9]): more mVenus fluorescence per cells
population of mVenus expressing cells at day 12 (mVenus [2]; [9]): more frequent population of mVenus expressing cells
% of producing cells (mVenus+) at maximum production (mVenus [2]; SAHA 5 μM, day 5-7, all the clones): more than 74%
time of maximum production of mVenus (mVenus [2]; SAHA 5 μM, end of the exponential phase): 5 to 7 days
% mVenus+ cells at day 12 (mVenus [2]; SAHA 5 μM, most clones (except 16)): < 10%
chlorophyll content, culture colour (C. reinhardtii [3]; 80 μM SAHA): red tint
chlorophyll content, culture colour (C. reinhardtii [3]; 20 and 40 μM SAHA): more yellow tint
frequency of mVenus-positive cells (mVenus [1]; clone 16, 5 μM): 73.1%
increase of amount of mVenus inside each cell (mean fluorescence intensity) (mVenus [1]; clone 16, 5 μM): 3-4 fold
increase of frequency of mVenus-positive cells (mVenus [1]; clone 16, 5 μM): 8.6 fold
frequency of mVenus-positive cells (mVenus [1]; clone 17, 5 μM): 59.9%
increase of amount of mVenus inside each cell (mean fluorescence intensity) (mVenus [1]; clone 17, 5 μM): 2-5 fold
increase of frequency of mVenus-positive cells (mVenus [1]; clone 17, 5 μM): 27 fold
expression of the transgene (mVenus [1]): substantially increase
palmelloid colonies quantified by flow cytometry (C. reinhardtii [4]; SAHA 5 μM, day 3 and 6 post-treatment, in most cases): increased
palmelloid colonies (microscopy) (C. reinhardtii [4]; SAHA 5 and 10 μM, 6 days): accumulation of small palmelloid colonies
palmelloid colonies (microscopy) (C. reinhardtii [4]; SAHA 20, 40 and 80 μM, increasing concentrations): Larger palmelloid colonies
motility (C. reinhardtii [4]; SAHA above 2.5 μM): progressively lost
phenotype induced in C. reinhardtii (C. reinhardtii [4]; SAHA, FIG. 6): induces a palmelloid phenotype
% of PI+ cells (C. reinhardtii [5]): slightly increased
% of transformant cells remaining intact (C. reinhardtii [5]): ~ 90%
increase of relative mVenus mRNA expression over histone H3 mRNA (mVenus mRNA; clone 16, SAHA 5 μM): 7 fold
increase of relative mVenus mRNA expression over histone H3 mRNA (mVenus mRNA; clone 17, SAHA 5 μM): 6.6 fold
frequency of cells expressing mVenus (mVenus [6]): increased
growth kinetic (C. reinhardtii [7]; 80 μM SAHA): totally inhibited
growth kinetic (C. reinhardtii [7]; 20 and 40 μM SAHA): inhibited partially
overall growth of microalgae (C. reinhardtii [7]; SAHA 5 μM, 12 days): did not impact the overall growth
frequency of cells expressing mVenus (mVenus [8]; [10]): increased
level of expression of mVenus per cell (mVenus [8]; [10]): increased
% of mVenus cells (mVenus [8]; clone 16, SAHA 2.5 μM): 68.1%
increase in protein expression (mean fluorescence intensity) (mVenus [8]; clone 16, SAHA 2.5 μM): 4.6 fold
increase of % of mVenus cells (mVenus [8]; clone 16, SAHA 2.5 μM, versus 13.3% without SAHA): 5.1 fold
